We go through one molecule from PMC11249012 (Journal of Medicinal Chemistry, 2024).

Converted amounts (≈) assume the structure as drawn.

One data set is described as follows: Solubility. The data set is classed as physicochemical.
In data set [1] the test system is hyperacetylation of tubulin, H3K9 and H3K27. As to the kind of experiment: Western blot of tubulin and histone H3 hyperacetylation in 4T1 cells. The data set is classed as cell-based, mouse. The following applies: hybrids 10 μM, 6 h. Here is the method:
The potential for compounds as HDACi’s can be rapidly tested in cells in culture by monitoring the hyperacetylation of histone H3 and tubulin. H3 acetylation is controlled by multiple class I enzymes, and the class IIb enzyme HDAC6 regulates tubulin acetylation.[36]−[39] […] (Figure 4A).
Figure 4 Evidence for HDAC inhibition in 4T1 and 4TO7 TNBC cells. Western blots and quantification of triplicate biological replicates analyzing the effects of 1,25D (100 nM), SAHA (100 nM), and hybrids (10 μM) on hyperacetylation of tubulin (A,D), H3K9 (B,E), and H3K27 (C,F) in 4T1 (A–C) and 4TO7 cells (D–F).
After 6 h treatments, 4T1, 4T07, or B16-F10 cells were solubilized in lysis buffer (20 mM Tris, pH 8, 150 mM NaCl, 1% Triton X-100, 3.5 mM SDS, and 13 mM deoxycholic acid), and proteins were separated on a 4–15% Tris/glycine/SDS gel (Bio-Rad). Then, the proteins were transferred to a nitrocellulose membrane, followed by blocking in 5% skim milk in Tris-buffered saline (TBS, 1×) solution. After blocking, the membranes were incubated overnight at 4 °C with the primary antibodies against acetylated tubulin (Sigma-Aldrich—#T7451), tubulin (Sigma-Aldrich—#T9026), acetyl-histone H3(Lys9) (Merck Millipore—#07-352), acetyl-histone H3 (Lys27) (Abcam—#ab4729), total histone H3 (Cell Signaling Technology (CST)—#3638), and GAPDH (Abcam—#ab8245). Then, the membranes were incubated with antimouse (CST—#7076) or antirabbit (CST—#7074) IgG HRP-linked secondary antibodies at recommended concentrations. Finally, signals were detected using Clarity ECL substrates (Bio-Rad) and a ChemiDoc Imaging System. Changes in protein levels were quantified relative to control using Image Lab software (version 6.0.1) after normalization to GAPDH. Western blot experiments were carried out three times.

For the next data set, the system named is 4T1 tumors. The experiment in a line: 4T1 TNBC model in vivo (primary tumor and lung metastases). More on the design: species or system mouse. The following applies: 4T1 model; for #Surface metastases (lung): vehicle 166. Here is the method: As 4T1 cells are aggressively metastatic, we can also assess the antimetastatic activity in the same experiment. All treatments were well tolerated, and, as in the B16-F10 model, none induced weight loss or other signs of stress over the course of the experiment (Figure 7A). Treatments reduced the primary tumor burden to varying degrees.
The antimetastatic activity was determined by counting the number of surface lung metastases of duplicate samples using a stereomicroscope. […] This degree of efficacy is remarkable, as in previous experiments, DK-406 reduced the metastatic burden by ∼2-fold.[30]
Finally, mice were sacrificed, and lungs of 4T1-bearing mice were removed to evaluate the efficiency of treatments on lung metastases.

The next data set concerns the target HDAC9 (Homo sapiens, UniProt Q9UKV0). As to the kind of experiment: Biochemical assay for HDAC inhibition, HDAC9. The following applies: concentrations as high as 100 μM.
The target of a further data set is T1, HDAC7 (Homo sapiens, UniProt Q8WUI4).
T1 sequence (Q8WUI4 1-952): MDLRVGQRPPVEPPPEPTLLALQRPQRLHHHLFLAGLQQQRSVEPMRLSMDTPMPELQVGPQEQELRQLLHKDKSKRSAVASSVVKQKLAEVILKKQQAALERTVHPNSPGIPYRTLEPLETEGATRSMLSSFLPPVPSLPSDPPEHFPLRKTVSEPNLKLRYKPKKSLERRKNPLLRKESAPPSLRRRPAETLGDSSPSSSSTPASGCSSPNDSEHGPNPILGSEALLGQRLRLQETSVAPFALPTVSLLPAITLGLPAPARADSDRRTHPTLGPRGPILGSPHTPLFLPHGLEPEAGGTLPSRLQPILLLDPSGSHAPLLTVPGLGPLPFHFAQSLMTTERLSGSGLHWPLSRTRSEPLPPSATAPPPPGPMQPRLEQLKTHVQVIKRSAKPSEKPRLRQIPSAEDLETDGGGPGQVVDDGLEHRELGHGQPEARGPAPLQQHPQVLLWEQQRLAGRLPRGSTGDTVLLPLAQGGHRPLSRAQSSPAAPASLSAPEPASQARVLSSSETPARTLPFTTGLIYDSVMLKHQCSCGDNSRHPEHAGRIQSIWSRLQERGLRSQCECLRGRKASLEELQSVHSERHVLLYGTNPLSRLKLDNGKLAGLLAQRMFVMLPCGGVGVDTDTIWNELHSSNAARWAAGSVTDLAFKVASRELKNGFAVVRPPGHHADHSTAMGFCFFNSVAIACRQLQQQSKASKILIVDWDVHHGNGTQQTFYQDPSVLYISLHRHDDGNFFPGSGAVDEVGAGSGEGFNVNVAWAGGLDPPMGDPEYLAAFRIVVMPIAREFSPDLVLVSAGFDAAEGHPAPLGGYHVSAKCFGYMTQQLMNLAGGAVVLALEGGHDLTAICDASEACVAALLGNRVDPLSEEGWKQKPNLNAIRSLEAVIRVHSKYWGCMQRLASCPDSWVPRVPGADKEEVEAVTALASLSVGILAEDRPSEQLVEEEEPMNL
As to the kind of experiment: Biochemical assay for HDAC inhibition, HDAC7. The following applies: read-out: IC50 HDAC7; Table 1, purified enzyme; unit inferred.

Sequence of HDAC9 (Q9UKV0 whole entry): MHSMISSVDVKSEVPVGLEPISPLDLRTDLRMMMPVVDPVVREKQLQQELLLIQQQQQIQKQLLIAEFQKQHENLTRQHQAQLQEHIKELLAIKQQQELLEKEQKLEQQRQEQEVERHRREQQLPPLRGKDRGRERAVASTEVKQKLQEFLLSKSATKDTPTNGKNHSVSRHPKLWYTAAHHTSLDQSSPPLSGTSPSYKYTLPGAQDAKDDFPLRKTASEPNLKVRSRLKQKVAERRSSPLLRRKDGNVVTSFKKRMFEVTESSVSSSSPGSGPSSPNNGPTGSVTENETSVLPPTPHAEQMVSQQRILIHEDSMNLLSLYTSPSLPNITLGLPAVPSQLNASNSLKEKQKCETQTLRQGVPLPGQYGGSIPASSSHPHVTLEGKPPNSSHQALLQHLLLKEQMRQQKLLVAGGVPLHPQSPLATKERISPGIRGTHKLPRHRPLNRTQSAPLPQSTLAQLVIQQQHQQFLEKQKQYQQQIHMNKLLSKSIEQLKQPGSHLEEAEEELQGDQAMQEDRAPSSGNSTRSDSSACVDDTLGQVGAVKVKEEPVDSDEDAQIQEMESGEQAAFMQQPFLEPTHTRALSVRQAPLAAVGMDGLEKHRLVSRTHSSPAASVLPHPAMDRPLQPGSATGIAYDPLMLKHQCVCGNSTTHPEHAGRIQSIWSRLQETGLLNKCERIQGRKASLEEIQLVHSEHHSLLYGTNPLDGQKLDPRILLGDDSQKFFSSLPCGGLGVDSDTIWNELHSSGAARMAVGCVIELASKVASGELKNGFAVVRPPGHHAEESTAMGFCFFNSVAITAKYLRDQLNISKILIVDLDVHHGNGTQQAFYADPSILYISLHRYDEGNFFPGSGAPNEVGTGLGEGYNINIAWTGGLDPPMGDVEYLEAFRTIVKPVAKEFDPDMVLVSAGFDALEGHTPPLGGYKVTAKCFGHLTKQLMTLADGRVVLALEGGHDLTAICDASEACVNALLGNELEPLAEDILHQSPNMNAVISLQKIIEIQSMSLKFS

`CCC(CC)(c1ccc(C(=O)NCCCCC(=O)NO)cc1)c1ccc(OCC(O)C(C)(C)C)c(C)n1` (stereo not drawn) [ZG-126, 4-(3-(5-(2-Hydroxy-3,3-dimethylbutoxy)-6-methylpyridin-2-yl)pentan-3-yl)-N-(5-(hydroxyamino)-5-oxopentyl)benzamide] yielded a solubility in the data set “Solubility” of 9.19 µg/mL (≈ 17.9 µM). For the same molecule, the “histone H3 hyperacetylation at lysine 9 and 27 (H3K9 and H3K27)” value in data set [1] was “comparable or superior to AM-193”. For the same molecule, the tubulin acetylation entry in data set [1] (SAHA 100 nM) is “by far the most efficacious”. Moreover, the “reduction in tumor burden” value in the data set on 4T1 tumors (BALB/c mice, ZG-126 high dose 5 mg/kg, statistically significant) is roughly 50%. Also, the “#Surface metastases (lung)” value is given as 47 in the data set with 4T1 tumors (1,25D 0.25 μg/kg, SAHA 80 mg/kg, AM-193 0.2 mg/kg, ZG-126 high 5.0 mg/kg) and 126 in the data set with 4T1 tumors (ZG-126 low 1.5 mg/kg). Also, in the data set with 4T1 tumors (high-dose ZG-126 (5 mg/kg)), the “reduction of surface lung metastases” value is reported as roughly 4 fold. Also, the “inhibition of HDAC9” value on HDAC9 is on record as “no or very limited inhibition”. Also, the IC50 on HDAC7 came out at 55.4 µM.
